These are literature values, as cited in patent US20230226121A1, “Honey Foam” (priority 2022, published 2023).

Structures are written as SMILES.

The test system of data set [1] is Staphylococcus aureus ATCC 29213.
Data set [2] relates to Escherichia Coli ATCC 25922.

For `CCN(CC)CC(=O)Nc1c(C)cccc1C` [lidocaine], the MIC is recorded as 20 Mg/ml in data set [1] and 5 Mg/ml in data set [2].
